From patent publication US20240300979A1, “SN-38 DERIVATIVE, NANO-PARTICLES CONTAINING SAID DERIVATIVE, MEDICINE, AND METHOD FOR PRODUCING SAID NANO-PARTICLES” (JAPAN SCIENCE AND TECHNOLOGY AGENCY, priority 2021, published 2024)

What was measured:
[1] = system: human mammary epithelial cell line HMEC; experiment: In vitro activity test, Test Example 4, normal cell; assay type: cell-based
Protocol: (§1) Human liver cancer cell line HePG2 or human breast cancer cell line KPL-4 was seeded in a 96-well plate at 2×10^4 cells/well. On the next day, irinotecan and each SN-38 derivative (compound A ((SN-38×C6 dimer (S—S, ester)), compound B (SN-38×C6 dimer (S—S, carbonate))) nanoparticle dispersion were added to the HepG2 cell culture medium to 0.04 to 10 μM. Then, the cells were cultured for 48 hours, and the cell viability was measured by a colorimetric method using the Cell Counting Kit-8 (produced by Dojindo Laboratories) and a microplate reader.
(§2) As in Test Example 1, human colon cancer cell line HCT-116 or human mammary epithelial cell line HMEC was seeded in a 96-well plate at 2×10^4 cells/well. On the next day, SN-38 and the SN-38 derivative (SNC4DC) nanoparticle dispersion were added to the cell culture medium to 0.04 to 10 μM. Then, the cells were cultured for 48 hours, and the cell viability was measured by a colorimetric method using the Cell Counting Kit-8 (produced by Dojindo Laboratories) and a microplate reader.

[2] = system: human colon cancer cell line HCT-116; experiment: In vitro activity test, Test Example 4, cancer cell; assay type: cell-based; conditions: HCT-116 (Cancer cell), 48 hours, read-out: cell viability IC50
Protocol: as §1, §2

[3] = Dispersion stability of the nano-prodrug; assay type: physicochemical
Text: (§3) Then, nanoparticles were produced. […] The present invention is based on these new findings. Therefore, the present invention provides the following items: […]

[4] = system: Human liver cancer cell line HePG2 or human breast cancer cell line KPL-4; experiment: In vitro activity test, Test Example 1 (cell viability, Cell Counting Kit-8); assay type: cell-based; conditions: nanoparticle dispersion, 0.04 to 10 μM, 48 hours
Protocol: as §1

[5] = Drug release triggered by the S-S bond on addition of dithiothreitol and glutathione; assay type: physicochemical; conditions: dithiothreitol and glutathione (reduced form) added to the nano-prodrug
Text: as §3

[6] = Nanoparticle aqueous dispersion, particle size and aggregation by SEM and DLS; assay type: physicochemical; conditions: 0.1 mM aqueous dispersion of nanoparticles
Protocol: 100 μL of THF solution of compound A or B prepared to 10 mM was injected into 10 mL of water using a syringe at room temperature, followed by stirring for 2 seconds at 1500 rpm, thereby obtaining an aqueous dispersion of nanoparticles. The concentration of the final aqueous dispersion was 0.1 mM.
100 μL of DMSO or THF solution of each compound prepared to 10 mM was injected into 10 mL of water using a syringe at room temperature, followed by stirring for 2 seconds at 1500 rpm, thereby obtaining an aqueous dispersion of nanoparticles. The concentration of the final aqueous dispersion was 0.1 mM.

IC50 [2] [nM] | SMILES | toxicity to normal cells ([1]; HMEC, in words from Table 4) | IC50 ([1]; Homo sapiens, HMEC (Normal cell), 48 hours, read-out: cell viability IC50) [nM] | dispersion stability [3] [days] | pharmacological activity (cell viability, FIG. 1) [4] | cleavage of the S-S bond [5] | formation of C6 acyloxy-substituted SN-38 derivative (drug release) [5] | particle size [6]
40 | CCc1c2c(nc3ccc(O)cc13)-c1cc3c(c(=O)n1C2)COC(=O)[C@]3(O)CC [SN-38] | highly toxic to normal cells | 550 | – | – | – | – | –
– | CCCCCC(=O)Oc1ccc2nc3c(c(CC)c2c1)Cn1c-3cc2c(c1=O)COC(=O)[C@@]2(CC)OC(=O)CCCSSCCCC(=O)O[C@]1(CC)C(=O)OCc2c1cc1n(c2=O)Cc2c-1nc1ccc(OC(=O)CCCCC)cc1c2CC [compound A] | – | – | ≥ 7 | did not exhibited good pharmacological activity | the cleavage of the S—S bond proceeded somewhat | not confirmed | about 100 nm
